Entries after “also recorded” stand apart in the source; their conditions may differ.
Assays:
ApoE knockout mice [1] = assay: Four blood lipids in serum of ApoE knockout mice (Example 1); type: in vivo; conditions: for HDL-C / LDL-C / TC / TG: serum
From the text: (§1) Methods: SPF grade C57BL/6 ApoE −/−model mice were provided by Guangdong Medical Experimental Animal Center, laboratory animal production license No. SOCK (Guangdong) 2013-0002. Laboratory animal quality certificate number: 44007200048196). Mice were half male and half female, aged 8 to 12 weeks, and 72 animals in total. After four weeks of housing in a SPF-level animal facility, animals with less body weights were disposed. A total of 64 animals were randomly divided into 8 groups, 8 in each group, fed with 10% high-fat food, and received with different treatments. Animals were observed and administered with the medicines by gavage once daily. The body weights were measured once a week and continued for 58 days. […] The test sample was dissolved in dimethyl sulfoxide solution and prepared with 30% PEG300.
At the end of the experiment, animals were anesthetized with pentobarbital sodium. Blood was collected from the orbital venous plexus, and centrifuged at 3000 r/min at a low temperature for 10 min to separate the serum. The levels of total cholesterol TC, triglyceride TG, high-density lipoprotein HDL-C, and low-density lipoprotein LDL-C were measured, and the remaining serum was stored in a refrigerator at −80° C.
Statistical analysis: Data were expressed as the mean plus or minus the standard deviation (x± s), and analyzed by SPSS21.0 statistical software. […] The level of test is α=0.05.

CD68 = assay: Immunohistochemistry of aortic wall, CD68; type: in vivo, mice; conditions: for aorta (CD68) signal expression in blood vessels: IHC-P×400, single animal micrograph; for CD68 average optical density: aortic wall
From the text: as §1
(§2) After blood collection, the animals were sacrificed, and the aortic arch together with the heart and thoracic aorta were fixed with neutral formaldehyde and subject to pathological examination. The abdominal aorta was collected and quick-frozen in liquid nitrogen, and stored at −80° C.
(§3) c) Immunohistochemistry: The thoracic aorta was sliced and detected by immunohistochemistry for the expression of CD68, intercellular adhesion molecule-1 (ICAM-1), and vascular cell adhesion Molecule-1 (VCAM-1).

ApoE knockout mice [2] = assay: Blood lipid metabolism TG, TCHO, HDL-c, LDL-c (Example 2); type: in vivo
From the text: Methods: A total of 130 SPF grade C57BL/6 ApoE −/− model male mice aged 8 weeks were purchased from Charles River Laboratories (Beijing, China) (animal license number: SCXK (Beijing) 2016-0001, animal qualification certificate No.: 11400700331337). After one week of acclimatization in a SPF-grade animal facility, the animals with less weights were discarded and the rest was randomly divided into 11 groups, with 8 animals in each group. Except for the healthy control group, the rest were fed with 10% high-fat food (the first day of the high-fat diet was recorded as D1). Starting from the 8th week of the high-fat diet, each group of animals was orally given solvents or corresponding drugs, and the volume of administration was 10 ml/kg, once a day for 8 weeks. Animals were observed and administered by gavage once a day and the body weight were measured once a week for 56 days. […] The store solution of the test samples was dissolved in dimethyl sulfoxide solution and prepared with 30% PEG300.
At the end of the experiment, the animals were euthanized by inhalation of carbon dioxide. Blood was taken from the heart, and centrifuged at 3000 r/min at a low temperature centrifuge for 10 min to separate the serum. The levels of total cholesterol TC, triglyceride TG, high-density lipoprotein HDL-C, and low-density lipoprotein LDL-C were measured, and the remaining serum was stored in a refrigerator at −80° C.
Before the start of the experiment, animal blood samples were analyzed for blood lipid metabolism, including conventional triglyceride (TG), total cholesterol (TCHO), high-density lipoprotein (HDL-c) and low-density lipoprotein (LDL-c). After high-fat or ordinary food feeding for 8 weeks, the blood lipid levels were measured again. After the drug treatment was started, blood lipid measurements were performed every four weeks until the end of the experiment.

[3] = tested on: atherosclerotic lesions in ApoE knockout mice; assay: Aortic HE and oil red O staining, atherosclerotic lesion scores (Example 1); type: in vivo; conditions: for Mild n (number of animal cases with mild lesions) / Moderate n (number of animal cases with moderate lesions) / No lesion n (number of animal cases) / Severe n (number of animal cases with severe lesions): of 8 animals; for animals that had atherosclerosis (histological observation): of 8 aortas examined
From the text: as §1, §2
a) HE staining: aortic arch was sliced and HE stained. The plaques were observed under optical microscope.
b) Oil red O staining: aortic arch was sliced and oil red O stained. The plaques were observed under optical microscope.

VCAM-1 = assay: Immunohistochemistry of aortic wall, VCAM-1; type: in vivo, mice; conditions: for aorta (VCAM-1) signal expression in blood vessels: IHC-P×400, single animal micrograph; for VCAM-1 average optical density: aortic wall
From the text: as §1, §2, §3

[4] = half male and female, 1 mg/kg body weight
[5] = half male and female, 2 mg/kg body weight
[6] = half male and female, 5 mg/kg body weight
[7] = ♂, 5 mg/kg gavage QD, 58 days, 5 mg/kg
[8] = ♂, 5 mg/kg gavage QD, 58 days, listed as sample B, 5 mg/kg

Structure (SMILES): O=C(N/N=C/c1coc2ccccc2c1=O)c1cccnc1 [Sample B]
- regulation on blood lipid levels (overall) (ApoE knockout mice [1]; Example 1, overall): have the effect of improving blood lipids
- HDL-C (ApoE knockout mice [1]; [4]): 1.75 ± 0.69 mmol/L
- LDL-C (ApoE knockout mice [1]; [4]): 6.19 ± 2.64 mmol/L
- TC (ApoE knockout mice [1]; [4]): 19.56 ± 5.66 mmol/L
- TG (ApoE knockout mice [1]; [4]): 0.91 ± 0.69 mmol/L
- HDL-C (ApoE knockout mice [1]; [5]): 1.68 ± 0.39 mmol/L
- LDL-C (ApoE knockout mice [1]; [5]): 5.71 ± 1.80 mmol/L
- TC (ApoE knockout mice [1]; [5]): 19.01 ± 4.64 mmol/L
- TG (ApoE knockout mice [1]; [5]): 0.81 ± 0.30 mmol/L
- HDL-C (ApoE knockout mice [1]; [6]): 1.71 ± 0.45 mmol/L
- LDL-C (ApoE knockout mice [1]; [6]): 5.96 ± 2.17 mmol/L
- TC (ApoE knockout mice [1]; [6]): 19.76 ± 5.49 mmol/L
- TG (ApoE knockout mice [1]; half male and female, 5 mg/kg body weight, 5 mg/kg): 0.74 ± 0.35 mmol/L
- TG (ApoE knockout mice [1]; half male and female, 5 mg/kg body weight, listed as sample B, 5 mg/kg): lower; also recorded: decreased
- LDL-C (ApoE knockout mice [1]; ♀, 1 mg/kg gavage QD, 58 days): 4.32 ± 0.59 mmol/L
- TC (ApoE knockout mice [1]; ♀, 1 mg/kg gavage QD, 58 days): 15.50 ± 2.01 mmol/L
- TG (ApoE knockout mice [1]; ♀, 1 mg/kg gavage QD, 58 days): 0.57 ± 0.08 mmol/L
- HDL-C (ApoE knockout mice [1]; ♀, 1 mg/kg gavage QD, 58 days, 1 mg/kg): 1.32 ± 0.18 mmol/L
- HDL-C (ApoE knockout mice [1]; ♀, 1 mg/kg gavage QD, 58 days, listed as sample B, 1 mg/kg): lower
- LDL-C (ApoE knockout mice [1]; ♀, 2 mg/kg gavage QD, 58 days): 4.40 ± 0.96 mmol/L
- TC (ApoE knockout mice [1]; ♀, 2 mg/kg gavage QD, 58 days): 15.49 ± 2.98 mmol/L
- TG (ApoE knockout mice [1]; ♀, 2 mg/kg gavage QD, 58 days): 0.58 ± 0.10 mmol/L
- HDL-C (ApoE knockout mice [1]; ♀, 2 mg/kg gavage QD, 58 days, 2 mg/kg): 1.36 ± 0.16 mmol/L
- HDL-C (ApoE knockout mice [1]; ♀, 2 mg/kg gavage QD, 58 days, listed as sample B, 2 mg/kg): lower
- LDL-C (ApoE knockout mice [1]; ♀, 5 mg/kg gavage QD, 58 days): 4.61 ± 0.56 mmol/L
- TC (ApoE knockout mice [1]; ♀, 5 mg/kg gavage QD, 58 days): 16.21 ± 1.98 mmol/L
- TG (ApoE knockout mice [1]; ♀, 5 mg/kg gavage QD, 58 days): 0.65 ± 0.24 mmol/L
- HDL-C (ApoE knockout mice [1]; ♀, 5 mg/kg gavage QD, 58 days, 5 mg/kg): 1.38 ± 0.08 mmol/L
- HDL-C (ApoE knockout mice [1]; ♀, 5 mg/kg gavage QD, 58 days, listed as sample B, 5 mg/kg): lower
- HDL-C (ApoE knockout mice [1]; ♂, 1 mg/kg gavage QD, 58 days): 2.18 ± 0.75 mmol/L
- LDL-C (ApoE knockout mice [1]; ♂, 1 mg/kg gavage QD, 58 days): 8.07 ± 2.56 mmol/L
- TC (ApoE knockout mice [1]; ♂, 1 mg/kg gavage QD, 58 days): 23.63 ± 5.16 mmol/L
- TG (ApoE knockout mice [1]; ♂, 1 mg/kg gavage QD, 58 days): 1.26 ± 0.89 mmol/L
- LDL-C (ApoE knockout mice [1]; ♂, 2 mg/kg gavage QD, 58 days): 7.03 ± 1.41 mmol/L
- TC (ApoE knockout mice [1]; ♂, 2 mg/kg gavage QD, 58 days): 22.54 ± 2.88 mmol/L
- TG (ApoE knockout mice [1]; ♂, 2 mg/kg gavage QD, 58 days): 1.05 ± 0.25 mmol/L
- HDL-C (ApoE knockout mice [1]; ♂, 2 mg/kg gavage QD, 58 days, 2 mg/kg): 2.00 ± 0.23 mmol/L
- HDL-C (ApoE knockout mice [1]; ♂, 2 mg/kg gavage QD, 58 days, listed as sample B, 2 mg/kg): lower
- LDL-C (ApoE knockout mice [1]; ♂, 5 mg/kg gavage QD, 58 days): 7.31 ± 2.41 mmol/L
- TC (ApoE knockout mice [1]; ♂, 5 mg/kg gavage QD, 58 days): 23.32 ± 5.72 mmol/L
- HDL-C (ApoE knockout mice [1]; [7]): 2.04 ± 0.42 mmol/L
- TG (ApoE knockout mice [1]; [7]): 0.83 ± 0.46 mmol/L
- HDL-C (ApoE knockout mice [1]; [8]): lower
- TG (ApoE knockout mice [1]; [8]): lower
- aorta (CD68) signal expression in blood vessels (CD68; 1 mg/kg): low to medium
- aorta (CD68) signal expression in blood vessels (CD68; 2 mg/kg): low to medium
- aorta (CD68) signal expression in blood vessels (CD68; 5 mg/kg): low to medium
- CD68 average optical density (CD68; 1 mg/kg gavage QD): 1.85 ± 1.51 ×10^−2
- CD68 average optical density (CD68; 2 mg/kg gavage QD): 2.22 ± 0.99 ×10^−2
- CD68 average optical density (CD68; 5 mg/kg gavage QD): 2.83 ± 1.40 ×10^−2
- effect on high-density lipoprotein (HDL-c) level compared with the vehicle group (ApoE knockout mice [2]): no obvious effect
- effect on low-density lipoprotein (LDL-c) level compared with the vehicle group (ApoE knockout mice [2]): significantly reduce
- effect on total cholesterol (TCHO) level compared with the vehicle group (ApoE knockout mice [2]): significantly reduce
- effect on triglyceride (TG) level compared with the vehicle group (ApoE knockout mice [2]): significantly reduce
- formation of arterial plaque (pathological results) ([3]; medium doses, preventive treatment): could delay the formation of arterial plaque in ApoE knockout mice to a certain extent
- Mild n (number of animal cases with mild lesions) ([3]; 1 mg/kg body weight): 2
- Moderate n (number of animal cases with moderate lesions) ([3]; 1 mg/kg body weight): 2
- No lesion n (number of animal cases) ([3]; 1 mg/kg body weight): 1
- Severe n (number of animal cases with severe lesions) ([3]; 1 mg/kg body weight): 3
- Mild n (number of animal cases with mild lesions) ([3]; 2 mg/kg body weight): 3
- Moderate n (number of animal cases with moderate lesions) ([3]; 2 mg/kg body weight): 1
- No lesion n (number of animal cases) ([3]; 2 mg/kg body weight): 4
- Severe n (number of animal cases with severe lesions) ([3]; 2 mg/kg body weight): 0
- Mild n (number of animal cases with mild lesions) ([3]; 5 mg/kg body weight): 3
- Moderate n (number of animal cases with moderate lesions) ([3]; 5 mg/kg body weight): 2
- No lesion n (number of animal cases) ([3]; 5 mg/kg body weight): 1
- Severe n (number of animal cases with severe lesions) ([3]; 5 mg/kg body weight): 2
- animals that had atherosclerosis (histological observation) ([3]; 1 mg/kg): 7 cases
- animals that had atherosclerosis (histological observation) ([3]; 2 mg/kg): 4 cases
- animals that had atherosclerosis (histological observation) ([3]; 5 mg/kg): 7 cases
- effect on atherosclerotic lesions compared with the statin group ([3]; overall, aortic pathology Example 1): equivalent to or better than that of the statin group
- Scores (atherosclerotic lesion score, average of the group) ([3]; score 0-3 per Table 8, 1 mg/kg body weight): 1.88 ± 1.13
- Scores (atherosclerotic lesion score, average of the group) ([3]; score 0-3 per Table 8, 2 mg/kg body weight): 0.62 ± 0.74
- Scores (atherosclerotic lesion score, average of the group) ([3]; score 0-3 per Table 8, 2 mg/kg body weight, listed as sample B): lower than the model control group
- Scores (atherosclerotic lesion score, average of the group) ([3]; score 0-3 per Table 8, 5 mg/kg body weight): 1.62 ± 1.06
- aorta (VCAM-1) signal expression in blood vessels (VCAM-1; 1 mg/kg): low to medium
- aorta (VCAM-1) signal expression in blood vessels (VCAM-1; 2 mg/kg): low to medium
- aorta (VCAM-1) signal expression in blood vessels (VCAM-1; 5 mg/kg): low to medium
- VCAM-1 average optical density (VCAM-1; 1 mg/kg gavage QD): 1.24 ± 0.99 ×10^−2
- VCAM-1 average optical density (VCAM-1; 2 mg/kg gavage QD, 2 mg/kg): 1.54 ± 1.11 ×10^−2
- VCAM-1 average optical density (VCAM-1; 2 mg/kg gavage QD, listed as Nib2, 2 mg/kg): reduced expression
- VCAM-1 average optical density (VCAM-1; 5 mg/kg gavage QD): 1.69 ± 0.85 ×10^−2
